Reference: US9226501B2, “Pesticidal compositions and processes related thereto” (Dow AgroSciences LLC, priority 2012, dated 2016)

Legend:
[1] = test system: Beet Armyworm (BAW) (spodoptera exigua); test: Bioassay on beet armyworm (BAW), 128-well diet tray assay; type: in vivo; settings: for BAW Rating: Table 5, prophetic compounds subsequently exemplified, beet armyworm; for pest or weed control at 50 µg/cm2: Spodoptera exigua, 168 h, % mortality, second instar larvae, 50 μg/cm^2 on artificial diet, five to seven days, 25° C., read-out: BAW Rating
Method: (§1) Certain molecules disclosed in this document were tested against BAW, CEW and CL using procedures described in the following examples. In the reporting of the results, the “BAW & CEW & CL Rating Table” was used (See Table Section).
Bioassays on BAW were conducted using a 128-well diet tray assay. One to five second instar BAW larvae were placed in each well (3 mL) of the diet tray that had been previously filled with 1 mL of artificial diet to which 50 μg/cm^2 of the test compound (dissolved in 50 μL of 90:10 acetone-water mixture) had been applied (to each of eight wells) and then allowed to dry. Trays were covered with a clear self-adhesive cover, and held at 25° C., 14:10 light-dark for five to seven days. Percent mortality was recorded for the larvae in each well; activity in the eight wells was then averaged. The results are indicated in the tables entitled “Table 3: Assay Results Part 1” and “Table 4: Assay Results Part 2” (See Table Section).

[2] = test system: Cabbage Looper (CL) (Trichoplusia ni); test: Bioassay on cabbage looper (CL), 128-well diet tray assay; type: in vivo; settings: for CL Rating: Table 5, prophetic compounds subsequently exemplified, cabbage looper; for pest or weed control at 50 µg/cm2: Trichoplusia ni, 168 h, % mortality, second instar larvae, 50 μg/cm^2 on artificial diet, five to seven days, 25° C., read-out: CL Rating
Method: as §1
Bioassays on CL were conducted using a 128-well diet tray assay. One to five second instar CL larvae were placed in each well (3 mL) of the diet tray that had been previously filled with 1 mL of artificial diet to which 50 μg/cm^2 of the test compound (dissolved in 50 μL of 90:10 acetone-water mixture) had been applied (to each of eight wells) and then allowed to dry. Trays were covered with a clear self-adhesive cover, and held at 25° C., 14:10 light-dark for five to seven days. Percent mortality was recorded for the larvae in each well; activity in the eight wells was then averaged. The results are indicated in the table entitled “Table 4: Assay Results Part 2” (See Table Section).

SMILES	BAW Rating [1]	CL Rating [2]	pest or weed control at 50 µg/cm2 [1]	pest or weed control at 50 µg/cm2 [2]
C[C@@H](NC(=O)c1ccc(/C=C/C(c2cc(Cl)c(Cl)c(Cl)c2)C(F)(F)F)cc1Br)C(=O)NCCF (some centres unmarked) [P1616]	A (50-100)	A (50-100)	–	–
CC(NC(=O)c1ccc(/C=C/C(c2cc(Cl)c(Cl)c(Cl)c2)C(F)(F)F)cc1C(F)(F)F)C(=O)NCC(F)F (centres unmarked) [P1613A]	A (50-100)	A (50-100)	–	–
C=Cc1cc(/C=C/C(c2cc(Cl)c(Cl)c(Cl)c2)C(F)(F)F)ccc1C(=O)N[C@H](C)C(=O)NCC(F)(F)F (some centres unmarked) [FA17]	–	–	50 to 100%	50 to 100%
O=C(CNC(=O)c1ccc(/C=C/C(c2cc(F)cc(C(F)(F)F)c2)C(F)(F)F)cc1Br)NCC(F)(F)F (centres unmarked) [P1340]	A (50-100)	A (50-100)	–	–
Cc1cc(/C=C/C(c2cc(Br)cc(Br)c2)C(F)(F)F)ccc1C(=O)NCC(=O)NCC(F)(F)F (centres unmarked) [P1972]	A (50-100)	A (50-100)	–	–
COc1cc(C(=O)NCC(=O)NCC(F)(F)F)c(Cl)cc1/C=C/C(c1cc(Cl)c(Cl)c(Cl)c1)C(F)(F)F (centres unmarked) [FA5]	–	–	50 to 100%	50 to 100%
Cc1cc(/C=C/C(c2cc(Cl)c(Cl)c(Cl)c2)C(F)(F)F)ccc1C(=S)NCC(=O)NCC(F)(F)F (centres unmarked) [P1564]	A (50-100)	A (50-100)	–	–
O=C(NCC(=S)NCC(F)(F)F)c1ccc(/C=C/C(c2cc(Cl)c(F)c(Cl)c2)C(F)(F)F)cc1Br (centres unmarked) [P1864]	A (50-100)	A (50-100)	–	–
CC(NC(=O)CNC(=O)c1ccc(/C=C/C(c2cc(Cl)c(Cl)c(Cl)c2)C(F)(F)F)cc1C(F)(F)F)C(F)(F)F (centres unmarked) [P1591]	A (50-100)	A (50-100)	–	–
CC(F)(F)CNC(=O)C(C)(C)NC(=O)c1ccc(/C=C/C(c2cc(Cl)c(Cl)c(Cl)c2)C(F)(F)F)cc1Br (centres unmarked) [FA23]	–	–	50 to 100%	50 to 100%
Cc1cc(C(/C=C/c2ccc(C(=O)N[C@H](C)C(=O)NCC(F)(F)F)c(C(F)(F)F)c2)C(F)(F)F)cc(C)c1F (some centres unmarked) [P516]	A (50-100)	A (50-100)	–	–
CC(NC(=O)CNC(=O)c1ccc(/C=C/C(c2cc(Br)cc(Br)c2)C(F)(F)F)cc1C(F)(F)F)C(F)(F)F (centres unmarked) [P2011]	A (50-100)	A (50-100)	–	–
O=C(NCC(=S)NCC(F)(F)F)c1ccc(/C=C/C(c2cc(Cl)c(F)c(Cl)c2)C(F)(F)F)cc1C(F)(F)F (centres unmarked) [P1866]	A (50-100)	A (50-100)	–	–
CC(NC(=O)c1ccc(/C=C/C(c2cc(Cl)c(Cl)c(Cl)c2)C(F)(F)F)cc1C(F)(F)F)C(=O)NCCC(F)(F)F (centres unmarked) [P1633A]	A (50-100)	A (50-100)	–	–
CC(C)[C@@H](NC(=O)c1ccc(/C=C/C(c2cc(Cl)c(Cl)c(Cl)c2)C(F)(F)F)cc1Br)C(=O)NCC(F)(F)F (some centres unmarked) [FA32]	–	–	50 to 100%	50 to 100%
Cc1cc(C(/C=C/c2ccc(C(=O)N[C@H](C)C(=O)NCC(F)(F)F)c(C(F)(F)F)c2)C(F)(F)F)ccc1F (some centres unmarked) [P1092]	A (50-100)	A (50-100)	–	–
C[C@@H](NC(=O)c1ccc(/C=C/C(c2ccc(F)c(F)c2F)C(F)(F)F)cc1C(F)(F)F)C(=O)NCC(F)(F)F (some centres unmarked) [P84]	A (50-100)	A (50-100)	–	–
Cc1cc(C(/C=C/c2ccc(C(=O)N[C@H](C)C(=O)NCC(F)(F)F)c(Br)c2)C(F)(F)F)ccc1F (some centres unmarked) [P1090]	A (50-100)	A (50-100)	–	–
O=C(CNC(=O)c1ccc(/C=C/C(c2cc(Br)cc(Br)c2)C(F)(F)F)cc1Cl)NCC(F)(F)F (centres unmarked) [P1970]	A (50-100)	A (50-100)	–	–
C[C@@H](NC(=O)c1ccc(/C=C/C(c2ccc(F)c(C#N)c2)C(F)(F)F)cc1Br)C(=O)NCC(F)(F)F (some centres unmarked) [P802]	A (50-100)	A (50-100)	–	–

SMILES	BAW Rating [1]	CL Rating [2]	pest or weed control at 50 µg/cm2 [1]	pest or weed control at 50 µg/cm2 [2]
CCc1cc(Cl)cc(C(/C=C/c2ccc(C(=O)N[C@H](C)C(=O)NCC(F)(F)F)c(Br)c2)C(F)(F)F)c1 (some centres unmarked) [FA31]	–	–	50 to 100%	50 to 100%
C[C@@H](NC(=O)c1ccc(/C=C/C(c2cc(Cl)c(Cl)c(Cl)c2)C(F)(F)C(F)(F)F)cc1C(F)(F)F)C(=O)NCC(F)(F)F (some centres unmarked) [P1601]	A (50-100)	A (50-100)	–	–
O=C(CNC(=O)c1ccc(/C=C/C(c2cc(Cl)c(Cl)c(Cl)c2)C(F)(F)F)cc1Br)NCCC(F)(F)F (centres unmarked) [FA7]	–	–	50 to 100%	50 to 100%
CCNC(=O)[C@@H](C)NC(=O)c1ccc(/C=C/C(c2cc(Cl)c(Cl)c(Cl)c2)C(F)(F)F)cc1C (some centres unmarked) [P1624]	A (50-100)	A (50-100)	–	–
CC(NC(=O)c1ccc(/C=C/C(c2cc(Cl)c(Cl)c(Cl)c2)C(F)(F)F)cc1Br)C(=O)NCCC(F)(F)F (centres unmarked) [P1631A]	A (50-100)	A (50-100)	–	–
C[C@@H](NC(=O)c1ccc(/C=C/C(c2ccc(Cl)c([N+](=O)[O-])c2)C(F)(F)F)cc1Br)C(=O)NCC(F)(F)F (some centres unmarked) [P730]	A (50-100)	A (50-100)	–	–
CC(NC(=O)CNC(=O)c1ccc(/C=C/C(c2cc(Br)cc(Br)c2)C(F)(F)F)cc1Cl)C(F)(F)F (centres unmarked) [P2010]	A (50-100)	A (50-100)	–	–
O=C(CNC(=O)c1ccc(/C=C/C(c2cc(Cl)c(Cl)c(Cl)c2)C(F)(F)F)cc1Cl)NCC(F)F (centres unmarked) [FA1]	–	–	50 to 100%	50 to 100%
C[C@@H](NC(=O)c1ccc(/C=C/C(c2cc(Br)c(Cl)c(Br)c2)C(F)(F)F)cc1C(F)(F)F)C(=O)NCC(F)(F)F (some centres unmarked) [FA27]	–	–	50 to 100%	50 to 100%
Cc1cc(C(/C=C/c2ccc(C(=O)N[C@H](C)C(=O)NCC(F)(F)F)c(Br)c2)C(F)(F)F)cc(C)c1F (some centres unmarked) [P514]	A (50-100)	A (50-100)	–	–
COc1c(F)cc(C(/C=C/c2ccc(C(=O)NCC(=O)NCC(F)(F)F)c(Br)c2)C(F)(F)F)cc1F (centres unmarked) [FA8]	–	–	0 to 50%	50 to 100%
Cc1cc(/C=C/C(c2cc(Br)cc(Br)c2)C(F)(F)F)ccc1C(=O)NCC(=O)NC(C)C(F)(F)F (centres unmarked) [P2012]	A (50-100)	A (50-100)	–	–
C[C@@H](NC(=O)c1ccc(/C=C/C(c2cc(Cl)c(Cl)cc2Cl)C(F)(F)F)cc1Br)C(=O)NCC(F)(F)F (some centres unmarked) [P156]	A (50-100)	A (50-100)	–	–
Cc1cc(/C=C/C(c2cc(Cl)c(Cl)c(Cl)c2)C(F)(F)F)ccc1C(=O)NCCC(=O)NCC(F)(F)F (centres unmarked) [P1641]	A (50-100)	A (50-100)	–	–
C[C@@H](NC(=O)c1ccc(/C=C/C(c2cc(Cl)c(Cl)c(Cl)c2)C(F)(F)C(F)(F)F)cc1Br)C(=O)NCC(F)(F)F (some centres unmarked) [P1599]	A (50-100)	A (50-100)	–	–
Fc1c(Cl)cc(C(/C=C/c2ccc(C(=S)NCC(=S)NCC(F)(F)F)c(Br)c2)C(F)(F)F)cc1Cl (centres unmarked) [P14]	B (More than 0-Less than 50)	A (50-100)	–	–
Cc1cc(/C=C/C(c2cc(Cl)c(Cl)c(Cl)c2)C(F)(F)F)ccc1C(=O)NCC(=O)NCC(F)F (centres unmarked) [FA2]	–	–	50 to 100%	50 to 100%
O=C(CNC(=O)c1ccc(/C=C/C(c2ccc(Cl)c(Cl)c2)C(F)(F)F)cc1Br)NCC(F)(F)F (centres unmarked) [P1776]	A (50-100)	A (50-100)	–	–
C[C@@H](NC(=O)c1ccc(/C=C/C(c2cc(Cl)cc(Cl)c2)C(F)(F)F)cc1Br)C(=O)NCC(F)(F)F (some centres unmarked) [P1696]	A (50-100)	A (50-100)	–	–
C[C@@H](NC(=O)c1ccc(/C=C/C(c2cc(Cl)c(Br)c(Cl)c2)C(F)(F)F)cc1Br)C(=O)NCC(F)(F)F (some centres unmarked) [FA22]	–	–	50 to 100%	50 to 100%
